These results are taken from ChEMBL document CHEMBL5465560, “Selectivity Literature for EUbOPEN Chemogenomic Library” (2024).

SMILES strings stand for the structures.

For assay [1], the target named is T1, Serine/threonine-protein kinase 3 (Homo sapiens) (UniProt Q13188).
T1 sequence (whole entry): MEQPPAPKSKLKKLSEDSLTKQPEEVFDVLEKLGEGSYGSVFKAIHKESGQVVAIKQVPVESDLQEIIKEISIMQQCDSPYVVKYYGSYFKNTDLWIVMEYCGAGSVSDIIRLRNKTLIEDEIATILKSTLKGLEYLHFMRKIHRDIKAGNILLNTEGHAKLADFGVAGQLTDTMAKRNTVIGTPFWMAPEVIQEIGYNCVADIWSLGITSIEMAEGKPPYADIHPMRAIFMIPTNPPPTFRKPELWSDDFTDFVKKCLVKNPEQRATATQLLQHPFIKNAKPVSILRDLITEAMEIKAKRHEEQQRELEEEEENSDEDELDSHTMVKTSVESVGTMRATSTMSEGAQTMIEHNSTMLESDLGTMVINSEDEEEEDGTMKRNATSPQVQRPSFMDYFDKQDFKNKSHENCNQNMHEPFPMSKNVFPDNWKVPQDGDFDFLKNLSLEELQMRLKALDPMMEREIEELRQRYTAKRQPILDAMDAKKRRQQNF
The assay is described as follows: Selectivity interaction (Kinase panel (KiNativ target engagement assay in Jurkat cells)) EUB0001635a STK3. In kind it is cell-based. To be noted: Selectivity number of off-targets 0.0, Selectivity number of targets 233.0, Source Knowledge https://www.sciencedirect.com/science/article/pii/S2451945619300674?via%3Dihub, at 1 µM.

Assay [2] concerns the target T2, Serine/threonine-protein kinase Nek5 (Homo sapiens) (UniProt Q6P3R8).
T2 sequence (whole entry): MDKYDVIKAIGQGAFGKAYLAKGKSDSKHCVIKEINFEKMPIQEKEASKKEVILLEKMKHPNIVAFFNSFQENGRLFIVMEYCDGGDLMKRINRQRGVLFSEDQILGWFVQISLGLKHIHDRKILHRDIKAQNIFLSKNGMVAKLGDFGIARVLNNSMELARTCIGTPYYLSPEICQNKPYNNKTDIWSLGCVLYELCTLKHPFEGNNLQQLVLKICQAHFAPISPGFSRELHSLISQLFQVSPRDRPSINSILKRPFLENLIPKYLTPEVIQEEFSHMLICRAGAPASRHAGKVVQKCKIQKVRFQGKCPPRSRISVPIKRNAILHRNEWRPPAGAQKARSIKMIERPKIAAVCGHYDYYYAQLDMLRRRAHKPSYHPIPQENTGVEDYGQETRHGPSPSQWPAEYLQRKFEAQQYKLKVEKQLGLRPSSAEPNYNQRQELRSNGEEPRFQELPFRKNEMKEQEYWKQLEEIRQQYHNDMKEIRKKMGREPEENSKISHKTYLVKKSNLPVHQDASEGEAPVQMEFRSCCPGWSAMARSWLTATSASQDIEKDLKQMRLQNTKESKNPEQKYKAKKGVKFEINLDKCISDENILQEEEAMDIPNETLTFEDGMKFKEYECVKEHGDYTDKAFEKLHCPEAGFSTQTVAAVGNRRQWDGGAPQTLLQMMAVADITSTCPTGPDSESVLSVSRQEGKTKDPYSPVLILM
The assay is described as follows: Selectivity interaction (Ambit KINOMEscan and KiNATiv profiling in Jurkat cells) EUB0000090b NEK5. The note with it: at 1 µM. In kind it is cell-based.

For assay [3], the system named is Tyrosine-protein kinase ABL1 (Homo sapiens), P00519 [F317L]. The assay is described as follows: Selectivity interaction (KinomeScan (DiscoverX)) EUB0000229b ABL1. The note with it: at 1 µM.
Assay [4] has as its target Tyrosine-protein kinase JAK2 (Homo sapiens, UniProt O60674). The assay is described as follows: Selectivity interaction (KinomeScan (DiscoverX)) EUB0001079a JAK2. To be noted: at 1 µM.
Assay [5] concerns the target T3, Muscarinic acetylcholine receptor M1 (Homo sapiens) (UniProt P11229).
T3 sequence (whole entry): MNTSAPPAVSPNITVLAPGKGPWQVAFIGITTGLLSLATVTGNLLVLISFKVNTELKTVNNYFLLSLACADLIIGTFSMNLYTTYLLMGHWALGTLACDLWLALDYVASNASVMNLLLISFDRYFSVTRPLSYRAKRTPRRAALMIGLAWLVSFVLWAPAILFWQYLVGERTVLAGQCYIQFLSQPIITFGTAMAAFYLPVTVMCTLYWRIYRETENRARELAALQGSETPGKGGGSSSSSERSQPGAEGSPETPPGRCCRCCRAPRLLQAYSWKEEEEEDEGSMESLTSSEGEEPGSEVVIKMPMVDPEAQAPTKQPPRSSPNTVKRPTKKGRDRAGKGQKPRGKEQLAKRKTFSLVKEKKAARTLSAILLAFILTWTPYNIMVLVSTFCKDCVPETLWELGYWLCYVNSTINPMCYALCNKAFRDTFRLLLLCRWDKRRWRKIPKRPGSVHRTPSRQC
Nature of the assay: Selectivity interaction (Safety Panel 44tm (Eurofins)) EUB0000162b CHRM1. The note with it: at 10 µM.

The target in assay [6] is Tyrosine-protein kinase BTK (Homo sapiens, UniProt Q06187). Nature of the assay: Selectivity interaction (ActivX KiNativ screen (kinase selectivity in THP-1 cell lysates)) EUB0000639a BTK. In kind it is subcellular. The note with it: lysate, at 0.2 µM.
For assay [7], the target named is T4, cGMP-dependent protein kinase 2 (Homo sapiens) (UniProt Q13237).
T4 sequence (whole entry): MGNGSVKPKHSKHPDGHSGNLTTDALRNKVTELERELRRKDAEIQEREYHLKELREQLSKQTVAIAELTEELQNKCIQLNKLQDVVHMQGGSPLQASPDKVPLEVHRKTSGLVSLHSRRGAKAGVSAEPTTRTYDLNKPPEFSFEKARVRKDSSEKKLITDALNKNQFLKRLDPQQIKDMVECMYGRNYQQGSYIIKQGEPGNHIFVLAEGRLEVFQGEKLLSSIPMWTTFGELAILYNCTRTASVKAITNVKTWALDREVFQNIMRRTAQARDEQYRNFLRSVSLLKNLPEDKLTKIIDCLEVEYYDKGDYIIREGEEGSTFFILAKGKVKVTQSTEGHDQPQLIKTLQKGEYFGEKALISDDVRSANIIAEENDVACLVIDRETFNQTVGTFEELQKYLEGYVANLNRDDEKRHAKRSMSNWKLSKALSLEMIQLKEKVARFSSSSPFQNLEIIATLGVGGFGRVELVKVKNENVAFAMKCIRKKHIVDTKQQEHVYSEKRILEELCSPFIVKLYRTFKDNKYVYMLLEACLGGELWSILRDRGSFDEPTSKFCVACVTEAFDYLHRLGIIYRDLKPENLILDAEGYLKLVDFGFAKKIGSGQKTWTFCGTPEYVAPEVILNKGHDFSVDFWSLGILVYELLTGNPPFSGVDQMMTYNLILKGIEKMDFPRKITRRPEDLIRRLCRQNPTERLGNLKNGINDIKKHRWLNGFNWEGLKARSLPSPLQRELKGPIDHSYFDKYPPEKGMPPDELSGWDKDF
The note with it: at 10 µM.

The target of assay [8] is LIM domain kinase 1 (Homo sapiens) (UniProt P53667). To be noted: at 10 µM.
Assay [9] concerns the target ALK tyrosine kinase receptor (Homo sapiens, UniProt Q9UM73). Nature of the assay: Selectivity interaction (KinomeScan (DiscoverX)) EUB0000618a ALK. To be noted: at 10 µM.

Tyrosine-protein kinase BTK, sequence (Q06187 whole entry): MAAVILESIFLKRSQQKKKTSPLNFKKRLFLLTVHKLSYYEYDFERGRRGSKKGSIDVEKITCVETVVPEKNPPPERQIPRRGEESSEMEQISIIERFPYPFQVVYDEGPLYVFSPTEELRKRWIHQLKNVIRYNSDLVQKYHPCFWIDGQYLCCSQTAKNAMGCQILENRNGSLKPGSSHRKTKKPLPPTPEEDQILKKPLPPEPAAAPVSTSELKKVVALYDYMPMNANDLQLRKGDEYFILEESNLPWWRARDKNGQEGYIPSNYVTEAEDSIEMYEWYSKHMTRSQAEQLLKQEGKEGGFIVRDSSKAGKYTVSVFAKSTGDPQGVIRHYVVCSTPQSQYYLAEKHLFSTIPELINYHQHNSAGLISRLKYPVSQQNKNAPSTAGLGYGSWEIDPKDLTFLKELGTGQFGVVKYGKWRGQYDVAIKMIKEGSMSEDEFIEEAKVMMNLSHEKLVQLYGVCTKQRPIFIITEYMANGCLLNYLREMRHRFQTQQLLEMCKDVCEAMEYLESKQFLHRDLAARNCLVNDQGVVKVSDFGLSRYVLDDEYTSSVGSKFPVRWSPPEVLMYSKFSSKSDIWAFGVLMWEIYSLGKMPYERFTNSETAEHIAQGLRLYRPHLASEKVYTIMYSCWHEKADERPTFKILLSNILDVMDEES
LIM domain kinase 1 (Homo sapiens), sequence (P53667 whole entry, looked up, the tested form may be a part): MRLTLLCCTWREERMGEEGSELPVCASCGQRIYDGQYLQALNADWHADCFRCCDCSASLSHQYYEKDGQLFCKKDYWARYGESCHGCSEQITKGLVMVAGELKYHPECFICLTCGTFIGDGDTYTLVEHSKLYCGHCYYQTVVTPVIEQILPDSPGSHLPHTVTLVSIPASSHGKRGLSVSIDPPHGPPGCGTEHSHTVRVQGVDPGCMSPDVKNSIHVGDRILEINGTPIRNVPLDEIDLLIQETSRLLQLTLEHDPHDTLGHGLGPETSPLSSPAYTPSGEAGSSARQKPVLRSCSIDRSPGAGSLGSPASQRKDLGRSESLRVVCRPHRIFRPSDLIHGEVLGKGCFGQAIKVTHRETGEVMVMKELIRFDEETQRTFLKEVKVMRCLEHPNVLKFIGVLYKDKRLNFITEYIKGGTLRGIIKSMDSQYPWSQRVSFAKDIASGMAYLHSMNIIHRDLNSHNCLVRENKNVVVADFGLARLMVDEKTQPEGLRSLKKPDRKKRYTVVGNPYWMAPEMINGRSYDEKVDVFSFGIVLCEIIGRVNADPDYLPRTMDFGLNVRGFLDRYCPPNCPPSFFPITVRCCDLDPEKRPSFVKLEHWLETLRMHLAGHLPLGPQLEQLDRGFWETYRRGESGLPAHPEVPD
ALK tyrosine kinase receptor, sequence (Q9UM73 19-1620 limits assumed): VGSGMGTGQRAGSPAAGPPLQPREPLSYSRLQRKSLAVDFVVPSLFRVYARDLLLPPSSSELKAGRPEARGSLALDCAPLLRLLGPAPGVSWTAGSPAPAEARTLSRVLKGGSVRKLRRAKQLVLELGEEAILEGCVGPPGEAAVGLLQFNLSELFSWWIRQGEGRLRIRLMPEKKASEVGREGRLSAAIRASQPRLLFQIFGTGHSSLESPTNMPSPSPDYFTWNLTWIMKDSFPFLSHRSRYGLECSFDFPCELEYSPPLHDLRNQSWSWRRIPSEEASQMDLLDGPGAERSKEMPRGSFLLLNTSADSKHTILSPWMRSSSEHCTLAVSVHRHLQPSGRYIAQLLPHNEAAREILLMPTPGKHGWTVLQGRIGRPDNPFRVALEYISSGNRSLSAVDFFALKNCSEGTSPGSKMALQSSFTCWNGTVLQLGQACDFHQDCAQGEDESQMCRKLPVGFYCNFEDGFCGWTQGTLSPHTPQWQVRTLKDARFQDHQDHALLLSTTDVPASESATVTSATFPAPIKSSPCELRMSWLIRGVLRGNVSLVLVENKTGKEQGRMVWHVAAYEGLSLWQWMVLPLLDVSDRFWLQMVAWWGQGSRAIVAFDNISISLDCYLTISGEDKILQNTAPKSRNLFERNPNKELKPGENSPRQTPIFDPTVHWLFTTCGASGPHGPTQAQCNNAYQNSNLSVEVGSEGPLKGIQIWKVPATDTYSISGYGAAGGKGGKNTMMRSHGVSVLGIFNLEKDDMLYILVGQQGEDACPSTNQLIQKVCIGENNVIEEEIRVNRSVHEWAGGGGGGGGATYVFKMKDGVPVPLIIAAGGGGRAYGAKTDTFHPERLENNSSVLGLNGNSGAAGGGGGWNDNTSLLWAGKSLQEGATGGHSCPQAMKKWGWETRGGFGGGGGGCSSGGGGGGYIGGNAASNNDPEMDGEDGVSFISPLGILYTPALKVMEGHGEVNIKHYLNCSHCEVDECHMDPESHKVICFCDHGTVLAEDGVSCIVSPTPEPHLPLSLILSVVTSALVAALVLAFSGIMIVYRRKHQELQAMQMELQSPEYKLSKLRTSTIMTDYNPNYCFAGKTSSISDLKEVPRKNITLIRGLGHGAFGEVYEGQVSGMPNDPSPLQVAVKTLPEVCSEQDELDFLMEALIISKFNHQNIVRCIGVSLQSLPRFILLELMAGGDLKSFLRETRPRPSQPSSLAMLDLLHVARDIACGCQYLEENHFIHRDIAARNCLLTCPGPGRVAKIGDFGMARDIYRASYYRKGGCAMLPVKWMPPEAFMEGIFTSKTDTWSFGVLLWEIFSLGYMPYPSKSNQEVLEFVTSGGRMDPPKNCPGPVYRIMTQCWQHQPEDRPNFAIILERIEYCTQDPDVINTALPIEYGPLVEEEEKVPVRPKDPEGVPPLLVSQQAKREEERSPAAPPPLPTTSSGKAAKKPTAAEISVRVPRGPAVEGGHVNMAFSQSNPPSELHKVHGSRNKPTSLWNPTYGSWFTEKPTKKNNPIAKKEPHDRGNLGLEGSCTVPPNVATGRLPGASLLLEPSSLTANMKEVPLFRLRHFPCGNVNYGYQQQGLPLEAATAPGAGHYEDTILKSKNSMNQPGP
Tyrosine-protein kinase ABL1 (Homo sapiens), P00519 [F317L], sequence (P00519 whole entry F317L): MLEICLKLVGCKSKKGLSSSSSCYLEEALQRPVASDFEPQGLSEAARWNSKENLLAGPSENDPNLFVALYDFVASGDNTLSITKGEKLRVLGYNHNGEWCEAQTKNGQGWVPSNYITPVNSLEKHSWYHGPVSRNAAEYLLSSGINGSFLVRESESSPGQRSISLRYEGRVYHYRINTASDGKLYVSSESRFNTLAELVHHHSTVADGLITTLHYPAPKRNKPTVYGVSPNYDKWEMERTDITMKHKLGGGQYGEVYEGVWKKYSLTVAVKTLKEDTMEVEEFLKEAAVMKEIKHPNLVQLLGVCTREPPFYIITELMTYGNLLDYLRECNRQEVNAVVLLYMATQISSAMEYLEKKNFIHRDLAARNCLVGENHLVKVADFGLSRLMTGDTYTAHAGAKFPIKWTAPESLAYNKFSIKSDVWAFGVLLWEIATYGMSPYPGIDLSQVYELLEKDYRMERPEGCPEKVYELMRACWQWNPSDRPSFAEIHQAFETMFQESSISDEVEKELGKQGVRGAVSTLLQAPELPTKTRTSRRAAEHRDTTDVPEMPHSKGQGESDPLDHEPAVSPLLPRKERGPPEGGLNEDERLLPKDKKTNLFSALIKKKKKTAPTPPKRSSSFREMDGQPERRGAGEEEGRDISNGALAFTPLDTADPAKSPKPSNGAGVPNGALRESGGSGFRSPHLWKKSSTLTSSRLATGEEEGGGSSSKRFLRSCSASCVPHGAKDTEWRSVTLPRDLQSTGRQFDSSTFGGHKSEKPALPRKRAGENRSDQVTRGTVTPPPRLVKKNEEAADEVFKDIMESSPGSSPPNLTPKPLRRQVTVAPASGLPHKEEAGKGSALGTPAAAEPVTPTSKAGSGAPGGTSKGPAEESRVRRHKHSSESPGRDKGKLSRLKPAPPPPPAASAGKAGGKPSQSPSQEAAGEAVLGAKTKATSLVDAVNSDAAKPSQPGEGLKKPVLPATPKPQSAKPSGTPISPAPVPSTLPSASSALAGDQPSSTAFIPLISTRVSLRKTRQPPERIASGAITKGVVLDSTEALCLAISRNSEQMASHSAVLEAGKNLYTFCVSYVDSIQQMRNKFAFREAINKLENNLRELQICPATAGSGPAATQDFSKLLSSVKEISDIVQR

In [1], `C=CC(=O)Nc1ccc(C(=O)Nc2[nH]nc3c2CN(C(=O)N[C@H](CN(C)C)c2ccccc2)C3(C)C)cc1` gave a % of engagement of 1%.

Compound `CN(C)C/C=C/C(=O)Nc1ccc(C(=O)N2CCCC(Nc3ncc(Cl)c(-c4c[nH]c5ccccc45)n3)C2)cc1` (centres undefined) displayed a % of control in assay [2] of 86%.

`COc1cc(N(C)c2ccnc3ccc(C(F)(F)F)cc23)cc(OC)c1OC` came in with a % binding in assay [3] of 90%.

`Nc1cnc(N2CCc3cc(S(=O)(=O)Nc4c(F)cc(Cl)cc4F)cc(N4CCCC4=O)c32)nc1` [TP-020n] had a % of control in assay [4] of 100%.

For the compound `CN(C)C(=O)Cn1cc(-c2ccc(-c3cncc4ccccc34)cc2)cn1`, in assay [5], the % of control came to 87%.

Regarding `CC[C@@H]1[C@H](F)C(=O)N[C@@H]1COc1nccc2cc(C(N)=O)c(OC)cc12` [ZIMLOVISERTIB], the % of inhibition in assay [6] was -2.7%.

Turning to `CCN(CC)CCCCNc1ncc2cc(-c3cc(OC)cc(OC)c3)c(NC(=O)NC(C)(C)C)nc2n1`, the % of control in assay [7] and in assay [8] was 100% throughout.

`O[C@H]1CC[C@H](Nc2ncc3nc(Nc4c(F)cc(F)cc4F)n([C@H]4CCOC4)c3n2)CC1`: in [9], the % of control turned out to be 100%.
